Experimental data taken from the NIST ThermoML archive (doi:10.1016/j.tca.2008.10.017).
Numbers after ± are expanded uncertainties.

Conditions: for molar entropy: 101.33 kPa, Small (less than 1 g) adiabatic calorimetry; for Triple point temperature: DTA

CCCC[N+](CCCC)(CCCC)CCCC.[I-] [tetrabutylammonium iodide] showed a molar entropy (5 K, Crystal 2) of 0.292 ± 0.03 J/K/mol, a molar entropy (10 K, Crystal 2) of 2.32 ± 0.07 J/K/mol and a molar entropy (20 K, Crystal 2) of 14.45 ± 0.23 J/K/mol. The molar entropy (30 K, Crystal 2) was 33.35 ± 0.31 J/K/mol, the molar entropy (40 K, Crystal 2) was 55.15 ± 0.44 J/K/mol and the molar entropy (50 K, Crystal 2) was 77.88 ± 0.57 J/K/mol. The molar entropy (60 K, Crystal 2) was 100.5 ± 0.7 J/K/mol, the molar entropy (70 K, Crystal 2) was 123 ± 0.8 J/K/mol and the molar entropy (80 K, Crystal 2) was 145 ± 1 J/K/mol. It also gave a molar entropy (90 K, Crystal 2) of 166.3 ± 1 J/K/mol, a molar entropy (100 K, Crystal 2) of 187 ± 1.2 J/K/mol and a molar entropy (110 K, Crystal 2) of 207.1 ± 1.3 J/K/mol. For the same compound, the molar entropy (120 K, Crystal 2) was 226.7 ± 1.4 J/K/mol, the molar entropy (130 K, Crystal 2) was 245.6 ± 1.5 J/K/mol and the molar entropy (140 K, Crystal 2) was 264 ± 1.6 J/K/mol. The molar entropy (150 K, Crystal 2) was 282 ± 1.6 J/K/mol, the molar entropy (160 K, Crystal 2) was 299.4 ± 1.7 J/K/mol and the molar entropy (170 K, Crystal 2) was 316.5 ± 1.8 J/K/mol. The molar entropy (180 K, Crystal 2) was 333.2 ± 1.9 J/K/mol, the molar entropy (190 K, Crystal 2) was 349.6 ± 2 J/K/mol and the molar entropy (200 K, Crystal 2) was 365.7 ± 2.1 J/K/mol. It also gave a molar entropy (210 K, Crystal 2) of 381.6 ± 2.2 J/K/mol, a molar entropy (220 K, Crystal 2) of 397.2 ± 2.2 J/K/mol and a molar entropy (230 K, Crystal 2) of 412.6 ± 2.3 J/K/mol. The molar entropy (240 K, Crystal 2) was 427.9 ± 2.4 J/K/mol, the molar entropy (250 K, Crystal 2) was 443.1 ± 2.5 J/K/mol and the molar entropy (260 K, Crystal 2) was 458.1 ± 2.6 J/K/mol. It also gave a molar entropy (270 K, Crystal 2) of 473.1 ± 2.6 J/K/mol, a molar entropy (273.15 K, Crystal 2) of 477.8 ± 2.7 J/K/mol and a molar entropy (280 K, Crystal 2) of 488 ± 2.7 J/K/mol. The molar entropy (290 K, Crystal 2) was 502.9 ± 2.8 J/K/mol, the molar entropy (298.15 K, Crystal 2) was 515 ± 2.9 J/K/mol and the molar entropy (300 K, Crystal 2) was 517.7 ± 2.9 J/K/mol. For the same compound, the molar entropy (310 K, Crystal 2) was 532.6 ± 2.9 J/K/mol, the molar entropy (320 K, Crystal 2) was 547.4 ± 3 J/K/mol and the molar entropy (330 K, Crystal 2) was 562.3 ± 3.1 J/K/mol. It also gave a molar entropy (340 K, Crystal 2) of 577.3 ± 3.2 J/K/mol, a molar entropy (350 K, Crystal 2) of 592.4 ± 3.3 J/K/mol and a Triple point temperature (Crystal 1) of 423.2 ± 0.8 K. The Triple point temperature (Crystal 2) was 398.7 ± 1 K.
